Experimental data published in patent US20170008888A1 (KYORIN PHARMACEUTICAL CO., LTD., priority 2014, published 2017).
Read-outs that look alike come from different tables or passages of the source.

Key:
[1] = test system: AurB or AurC; experiment: Probe-based (AX9989) kinase profiling in Jurkat lysate: AurB or AurC; assay type: binding
Procedure, shortened: (§1)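 Compounds were pre-incubated for 15 min at room temperature with gel-filtered Jurkat cell lysate supplemented with 20 mM MnCl2, after which the acyl phosphate ATP probe AX9989 was added at 5 μM final. Labeled active-site peptides were enriched after tryptic digestion and measured by LC/MS, with percent inhibition taken relative to samples without compound.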

[2] = biological target: T1, ACK (Homo sapiens, UniProt Q07912); experiment: Probe-based (AX9989) kinase profiling in Jurkat lysate: ACK; assay type: binding; conditions: for inhibition at 0.1 µM: screening concentration 0.1 μM
T1 construct: screened for activity against several kinases in Jurkat cells; endogenous in cells; host or cells: Jurkat cell lysate
T1 sequence (Q07912 whole entry): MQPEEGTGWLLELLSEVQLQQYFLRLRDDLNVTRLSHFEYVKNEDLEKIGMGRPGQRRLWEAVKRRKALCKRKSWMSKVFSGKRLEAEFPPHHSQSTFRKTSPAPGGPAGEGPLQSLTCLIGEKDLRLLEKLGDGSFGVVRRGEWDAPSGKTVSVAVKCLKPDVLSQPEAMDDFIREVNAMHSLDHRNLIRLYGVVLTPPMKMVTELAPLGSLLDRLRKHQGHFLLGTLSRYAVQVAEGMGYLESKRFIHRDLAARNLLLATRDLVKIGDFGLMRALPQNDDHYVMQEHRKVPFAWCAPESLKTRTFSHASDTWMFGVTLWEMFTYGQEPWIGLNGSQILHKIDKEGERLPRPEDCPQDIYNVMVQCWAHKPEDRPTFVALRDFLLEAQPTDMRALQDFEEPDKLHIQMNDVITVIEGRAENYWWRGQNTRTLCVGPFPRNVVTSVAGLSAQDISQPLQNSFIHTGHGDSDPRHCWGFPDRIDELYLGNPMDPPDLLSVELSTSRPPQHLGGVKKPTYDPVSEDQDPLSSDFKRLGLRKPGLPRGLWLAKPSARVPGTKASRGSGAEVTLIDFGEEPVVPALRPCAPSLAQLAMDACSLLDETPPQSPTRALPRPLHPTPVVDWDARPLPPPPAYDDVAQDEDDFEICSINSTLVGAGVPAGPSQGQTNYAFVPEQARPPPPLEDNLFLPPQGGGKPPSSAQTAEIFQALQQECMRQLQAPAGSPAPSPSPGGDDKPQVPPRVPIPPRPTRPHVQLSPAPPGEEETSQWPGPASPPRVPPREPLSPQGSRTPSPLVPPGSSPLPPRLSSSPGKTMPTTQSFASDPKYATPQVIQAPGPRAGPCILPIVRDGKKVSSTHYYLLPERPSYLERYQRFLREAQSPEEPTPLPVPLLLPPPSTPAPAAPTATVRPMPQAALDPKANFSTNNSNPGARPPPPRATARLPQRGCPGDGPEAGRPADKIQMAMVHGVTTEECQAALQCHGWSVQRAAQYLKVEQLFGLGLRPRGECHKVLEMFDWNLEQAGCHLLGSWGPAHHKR
Procedure, shortened: as §1

[3] = biological target: T2, recombinant human ERK5 catalytic domain (Homo sapiens, UniProt Q13164); experiment: Recombinant human ERK5 radiometric (HotSpot) assay; assay type: biochemical; conditions: 10 μM ATP, 20 μM myelin basic protein substrate; read-out: rhERK5 IC50
T2 construct: Recombinant human ERK5 catalytic domain radiometric assays; purchased Reaction Biology, Corp (Malvern, Pa.), which ran the assay as a service
T2 sequence (Q13164 55-347 limits assumed): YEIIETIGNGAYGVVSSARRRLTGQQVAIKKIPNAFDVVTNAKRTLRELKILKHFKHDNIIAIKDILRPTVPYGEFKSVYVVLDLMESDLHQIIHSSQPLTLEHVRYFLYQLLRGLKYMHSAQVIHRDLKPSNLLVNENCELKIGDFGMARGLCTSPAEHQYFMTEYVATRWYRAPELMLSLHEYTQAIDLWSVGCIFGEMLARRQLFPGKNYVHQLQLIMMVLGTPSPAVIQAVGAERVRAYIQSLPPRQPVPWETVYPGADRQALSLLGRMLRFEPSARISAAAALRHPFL
Protocol: In this example, potency of the compounds in recombinant human ERK5 was assayed.
Recombinant human ERK5 catalytic domain radiometric assays were performed by Reaction Biology, Corp (Malvern, Pa.). The HotSpot radiometric assay is based on conventional filter-binding assays (Nature Biotechnology (2011) 29: 1039-1045). Compounds were tested at 20 μM down by ⅓ in a 10 point serial dilution series. Briefly, [γ-33P]-ATP was used as the tracer along with 10 μM cold ATP to label ERK5 in the presence of 20 μM myelin basic protein substrate.

[4] = test system: human PBMCs; experiment: Human PBMC TNF-α response to endotoxin (ELISA); assay type: cell-based; conditions: 0.1 μg/ml LPS 16 h, read-out: EC50 for the inhibition of the human PBMC TNF-α response to endotoxin, ave. ± S.D.
Procedure, shortened: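 PBMCs at 2e6 cells/ml in RPMI 1640 with 10% charcoal-dextran-treated FBS were pre-treated 1 h at 37 °C with compound (4-point 1:5 dilution from 10 μM). Stimulation with 0.1 μg/ml E. coli 0111:B4 LPS for 16 h; TNF-α measured by ELISA (A450) in 25-fold diluted supernatant.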

[5] = biological target: T3, BRD4 bromodomain domain I [BRD4(1)] (Homo sapiens, UniProt O60885); experiment: BRD4 bromodomain domain 1 inhibition assay (TR-FRET); assay type: binding; conditions: for inhibition at 10 µM: screening concentration 10 μM
T3 construct: BRD4 bromodomain domain I [BRD4(1)]; purchased Cayman Chemicals
Procedure, shortened: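 0.5% DMSO, in triplicate, using Cayman BRD4(1) TR-FRET protocol with slight modification. 670/620 nm ratio normalized to 10 μM JQ1, with DMSO control set as 0% inhibition.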

[6] = screening concentration 1 μM, read-out: ACK Inhibition % at indicated screening concentration
[7] = screening concentration 10 μM, read-out: ACK Inhibition % at indicated screening concentration
[8] = screening concentration 1.0 μM, read-out: Kinase inhibition % at indicated screening concentration: ACK
[9] = read-out: Kinase inhibition % at indicated screening concentration: ACK

Row | Structure (SMILES) | EC50 [4] [nM] | inhibition at 10 µM [5] [%] | Kinase inhibition % at indicated screening concentration: AurB or AurC ([1]; screening concentration 1.0 μM) | inhibition at 1 µM [2, 8] [%] | also measured
1 | CCOc1cc(C(=O)N2CCC(N3CC[C@H](O)C3)CC2)ccc1Nc1cc2c(cn1)N(C)C(=O)c1ccccc1N2C [Compound T11] | 620 | > 85 |  |  | AurB or AurC Inhibition % at indicated screening concentration ([1]; screening concentration 1 μM): E (E is ≦35%); inhibition at 1 µM [2, 6]: ≤ 35%; IC50 [3]: 20 to 50 nM
2 | CCOc1cc(C(=O)N2CCN(C3CCN(C)CC3)CC2)ccc1Nc1cc2c(cn1)N(C)C(=O)c1ccccc1N2C [Compound T8] | 410 ± 120 | > 85 |  |  | AurB or AurC Inhibition % at indicated screening concentration ([1]; screening concentration 1 μM): E (E is ≦35%); inhibition at 1 µM [2, 6]: ≤ 35%; IC50 [3]: < 20 nM
3 | CCOc1cc(C(=O)N2CCC(N3CCN(C)CC3)CC2)ccc1Nc1cc2c(cn1)N(C)C(C(F)(F)F)c1ccccc1N2C (centres unmarked) [Compound T47] | 3970 |  |  |  | AurB or AurC Inhibition % at indicated screening concentration ([1]; screening concentration 10 μM): E (E is ≦35%); inhibition at 10 µM [2, 7]: ≤ 35%; IC50 [3]: > 200 nM
4 | C[C@@H]1C[C@H](Nc2cc3c(cn2)N(C)C(=O)c2ccccc2N3C)CC[C@H]1O [Compound T115] | 780 ± 690 |  |  |  | AurB or AurC Inhibition % at indicated screening concentration ([1]; screening concentration 10 μM): E (E is ≦35%); inhibition at 10 µM [2, 7]: ≤ 35%; IC50 [3]: > 200 nM; IC50 [5]: 2000 to 5000 nM
5 | CCOc1cc(C(=O)N2CCN(C(C)=O)CC2)ccc1Nc1cc2c(cn1)N(C)C(=O)c1ccccc1N2C [Compound T18] | 820 ± 100 | 70 to 85 |  |  | AurB or AurC Inhibition % at indicated screening concentration ([1]; screening concentration 1 μM): E (E is ≦35%); inhibition at 1 µM [2, 6]: ≤ 35%; IC50 [3]: 20 to 50 nM
6 | CCOc1cc(C(=O)N2CCC(NCCF)C2)ccc1Nc1cc2c(cn1)N(C)C(C(F)(F)F)c1ccccc1N2C (centres unmarked) [Compound T54] | 7140 |  |  |  | AurB or AurC Inhibition % at indicated screening concentration ([1]; screening concentration 10 μM): E (E is ≦35%); inhibition at 10 µM [2, 7]: ≤ 35%; IC50 [3]: > 200 nM
7 | CCOc1cc(C(=O)N2CC[C@H](N(C)C)C2)ccc1Nc1cc2c(cn1)N(C)C(=O)c1ccccc1N2C [Compound 75] | 610 | > 85 | E (E is ≦35%) | ≤ 35 | 
8 | CCOc1cc(C(=O)N2C[C@H]3CCN[C@H]3C2)ccc1Nc1cc2c(cn1)N(C)C(=O)c1ccccc1N2C [Compound T5] | 840 | 70 to 85 |  |  | AurB or AurC Inhibition % at indicated screening concentration ([1]; screening concentration 1 μM): E (E is ≦35%); inhibition at 1 µM [2, 6]: ≤ 35%
9 | CCOc1cc(C(=O)N2CCN(CC3CC3)CC2)ccc1Nc1cc2c(cn1)N(C)C(=O)c1ccccc1N2C [Compound 10] | 1280 | 70 to 85 |  |  | Kinase inhibition % at indicated screening concentration: AurB or AurC ([1]; screening concentration 0.1 μM): E (E is ≦35%); inhibition at 0.1 µM [2, 9]: ≤ 35%
10 | CCOc1cc(C(=O)N[C@@H]2CCCOC2)ccc1Nc1cc2c(cn1)N(C)C(=O)c1ccccc1N2C [Compound 69] | 1070 | < 70 | E (E is ≦35%) | ≤ 35 | 
11 | CN1C(=O)c2ccccc2N(C)c2cc(Nc3ccc(C(=O)N4CC[C@@H](N(C)C)C4)cc3F)ncc21 [Compound 110] | 1760 ± 500 | < 70 |  |  | Kinase inhibition % at indicated screening concentration: AurB or AurC ([1]; screening concentration 10.0 μM): C (C is >50% to ≦75%); inhibition at 10 µM ([2]; screening concentration 10.0 μM, read-out: Kinase inhibition % at indicated screening concentration: ACK): ≤ 35%
12 | CCOc1cc(C(=O)NC2CCOCC2)ccc1Nc1cc2c(cn1)N(C)C(=O)c1ccccc1N2C [Compound 80] | 1290 | < 70 | E (E is ≦35%) | ≤ 35 | 
13 | CCOc1cc(C(=O)N2CCNC[C@H]2C)ccc1Nc1cc2c(cn1)N(C)C(=O)c1ccccc1N2C [Compound 82] | 1540 | > 85 |  |  | Kinase inhibition % at indicated screening concentration: AurB or AurC ([1]; screening concentration 0.1 μM): E (E is ≦35%); inhibition at 0.1 µM [2, 9]: ≤ 35%
14 | CN1C(=O)c2ccccc2N(C)c2cc(N[C@H]3CC[C@H](N4CCCC4)CC3)ncc21 [Compound 74] | 4960 | < 70 | E (E is ≦35%) | ≤ 35 | 
15 | CCOc1cc(C(=O)NCCN(C(C)C)C(C)C)ccc1Nc1cc2c(cn1)N(C)C(=O)c1ccccc1N2C [Compound 55] | 1160 ± 450 | 70 to 85 |  |  | Kinase inhibition % at indicated screening concentration: AurB or AurC ([1]; screening concentration 0.1 μM): E (E is ≦35%); inhibition at 0.1 µM [2, 9]: ≤ 35%
16 | CCOc1cc(C(=O)N[C@H]2CC[C@@H](O)CC2)ccc1Nc1cc2c(cn1)N(C)C(=O)c1ccccc1N2C [Compound T63] | 750 |  |  |  | AurB or AurC Inhibition % at indicated screening concentration ([1]; screening concentration 1 μM): E (E is ≦35%); inhibition at 1 µM [2, 6]: ≤ 35%; IC50 [3]: > 200 nM
17 | CCOc1cc(C(=O)N2CCC(N3CCCC3)CC2)ccc1Nc1cc2c(cn1)N(C)C(=O)c1occc1N2C [Compound 91, 6-((2-Ethoxy-4-(4-(pyrrolidin-1-yl)piperidine-1-carbonyl)phenyl)amino)-4,9-dimethyl-4H-furo[3,2-e]pyrido[3,4-b][1,4]diazepin-10(9H)-one] | 710 | > 85 |  |  | Kinase inhibition % at indicated screening concentration: AurB or AurC ([1]; screening concentration 0.1 μM): E (E is ≦35%); inhibition at 0.1 µM [2, 9]: ≤ 35%
18 | CCOc1cc(C(=O)N2CCN(CC)CC2)ccc1Nc1cc2c(cn1)N(C)C(=O)c1ccccc1N2C [Compound 108] | 700 | 70 to 85 | E (E is ≦35%) | ≤ 35 | 
19 | CCOc1cc(C(=O)NCCOCCO)ccc1Nc1cc2c(cn1)N(C)C(=O)c1ccccc1N2C [Compound 101] | 970 | 70 to 85 | E (E is ≦35%) | ≤ 35 | 
20 | CN1C(=O)c2ccccc2N(C)c2cc(NC3CCOCC3)ncc21 [Compound 102] | 2520 | < 70 | E (E is ≦35%) | ≤ 35 | 
21 | CCOc1cc(C(=O)N2CC[C@@H](N3CCCCC3)C2)ccc1Nc1cc2c(cn1)N(C)C(=O)c1occc1N2C [Compound 56] | 600 ± 190 | > 85 |  |  | Kinase inhibition % at indicated screening concentration: AurB or AurC ([1]; screening concentration 0.1 μM): E (E is ≦35%); inhibition at 0.1 µM [2, 9]: ≤ 35%
22 | CCOc1cc(C(=O)N2CCN(CCOCCO)CC2)ccc1Nc1cc2c(cn1)N(C)C(=O)c1ccccc1N2C [Compound 6] | 540 | > 85 | E (E is ≦35%) | ≤ 35 | 
23 | CCOc1cc(C(=O)N2CC[C@@H](N(CC)CC)C2)ccc1Nc1cc2c(cn1)N(C)C(=O)c1occc1N2C [Compound 67] | 920 ± 180 | > 85 |  |  | Kinase inhibition % at indicated screening concentration: AurB or AurC ([1]; screening concentration 0.1 μM): E (E is ≦35%); inhibition at 0.1 µM [2, 9]: ≤ 35%
24 | CCOc1cc(C(=O)N(CC)CCN(CC)CC)ccc1Nc1cc2c(cn1)N(C)C(=O)c1ccccc1N2C [Compound 122] | 1130 ± 380 | 70 to 85 | E (E is ≦35%) | ≤ 35 | 
25 | CN1CCC(N2CCN(C(=O)c3ccc(Nc4cc5c(cn4)N(C)C(=O)c4ccccc4N5C)c(F)c3)CC2)CC1 [Compound T70] | 2090 | < 70 |  |  | AurB or AurC Inhibition % at indicated screening concentration ([1]; screening concentration 1 μM): E (E is ≦35%); inhibition at 1 µM [2, 6]: ≤ 35%
26 | CCOc1cc(C(=O)N[C@H]2CCCOC2)ccc1Nc1cc2c(cn1)N(C)C(=O)c1ccccc1N2C [Compound 100] | 1020 | 70 to 85 | E (E is ≦35%) | ≤ 35 | 
27 | CCOc1cc(C(=O)NCCCN(CC)CC)ccc1Nc1cc2c(cn1)N(C)C(=O)c1ccccc1N2C [Compound 54] | 600 | > 85 | E (E is ≦35%) | ≤ 35 | 
28 | CCOc1cc(C(=O)N2CCC(N3CCCC3)CC2)ccc1Nc1cc2c(cn1)N(C)C(=O)c1ccccc1N2C [Compound 46, 3-(2-Ethoxy-4-(4-(pyrrolidin-1-yl)piperidine-1-carbonyl)phenylamino)-5,11-dimethyl-5H-benzo[e]pyrido[3,4-b][1,4]diazepin-10(11H)-one] | 470 | > 85 | E (E is ≦35%) | ≤ 35 | 
